Laboratory results: PubChem BioAssay (NCI)
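48-hour exposure; five concentrations; linearly interpolated endpoints. GI50: concentration for 50% inhibition of growth. At the TGI there is no net growth.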

Assays:
Assay in all cases: inhibition of tumour cell growth, NCI panel, 48 h
NCI-H460 lung = system: NCI-H460 lung
786-0 renal = system: 786-0 renal
SF-295 CNS = system: SF-295 CNS
UACC-257 melanoma = system: UACC-257 melanoma
HOP-92 NSCLC = system: HOP-92 NSCLC
OVCAR-8 ovarian = system: OVCAR-8 ovarian
OVCAR-5 ovarian = system: OVCAR-5 ovarian
MDA-MB-231 breast = system: MDA-MB-231 breast
KM12 colon = system: KM12 colon
HCT-116 colon = system: HCT-116 colon
OVCAR-4 ovarian = system: OVCAR-4 ovarian
NCI-H23 lung = system: NCI-H23 lung
COLO 205 colon = system: COLO 205 colon
SK-MEL-5 melanoma = system: SK-MEL-5 melanoma
TK-10 renal = system: TK-10 renal
SK-OV-3 ovarian = system: SK-OV-3 ovarian
LOX IMVI melanoma = system: LOX IMVI melanoma
RXF 393 renal = system: RXF 393 renal
PC-3 prostate = system: PC-3 prostate
HCC-2998 colon = system: HCC-2998 colon
MOLT-4 leukemia = system: MOLT-4 leukemia
SW-620 colon = system: SW-620 colon
SN12C renal = system: SN12C renal
HOP-62 NSCLC = system: HOP-62 NSCLC
A498 renal = system: A498 renal
IGROV1 ovarian = system: IGROV1 ovarian
UACC-62 melanoma = system: UACC-62 melanoma
U251 CNS = system: U251 CNS
NCI/ADR-RES ovarian = system: NCI/ADR-RES ovarian
CCRF-CEM leukemia = system: CCRF-CEM leukemia
CAKI-1 renal = system: CAKI-1 renal
SNB-75 CNS = system: SNB-75 CNS
BT-549 breast = system: BT-549 breast
MCF7 breast = system: MCF7 breast
SNB-19 CNS = system: SNB-19 CNS
SF-539 CNS = system: SF-539 CNS
K-562 leukemia = system: K-562 leukemia
A549 NSCLC = system: A549 NSCLC
NCI-H226 lung = system: NCI-H226 lung
HS 578T breast = system: HS 578T breast
M14 melanoma = system: M14 melanoma
SR leukemia = system: SR leukemia
SK-MEL-28 melanoma = system: SK-MEL-28 melanoma
HL-60(TB) leukemia = system: HL-60(TB) leukemia
SK-MEL-2 melanoma = system: SK-MEL-2 melanoma
OVCAR-3 ovarian = system: OVCAR-3 ovarian
HT29 colon = system: HT29 colon
EKVX NSCLC = system: EKVX NSCLC
MALME-3M melanoma = system: MALME-3M melanoma
ACHN renal = system: ACHN renal
HCT-15 colon = system: HCT-15 colon
UO-31 renal = system: UO-31 renal
DU-145 prostate = system: DU-145 prostate
T-47D breast = system: T-47D breast
RPMI-8226 leukemia = system: RPMI-8226 leukemia
SF-268 CNS = system: SF-268 CNS
MDA-MB-435 = system: MDA-MB-435
NCI-H522 lung = system: NCI-H522 lung

Cn1c(=O)n2n(c1=O)[C@@H](c1ccccc1)[C@H]2c1ccccc1
TGI (NCI-H460 lung): > 100 µM
TGI (786-0 renal): > 100 µM
TGI (SF-295 CNS): > 100 µM
TGI (UACC-257 melanoma): > 100 µM
TGI (HOP-92 NSCLC): > 100 µM
TGI (OVCAR-8 ovarian): > 100 µM
TGI (OVCAR-5 ovarian): > 100 µM
TGI (MDA-MB-231 breast): > 100 µM
TGI (KM12 colon): > 100 µM
TGI (HCT-116 colon): > 100 µM
TGI (OVCAR-4 ovarian): > 100 µM
TGI (NCI-H23 lung): > 100 µM
TGI (COLO 205 colon): > 100 µM
TGI (SK-MEL-5 melanoma): > 100 µM
TGI (TK-10 renal): > 100 µM
TGI (SK-OV-3 ovarian): > 100 µM
TGI (LOX IMVI melanoma): > 100 µM
TGI (RXF 393 renal): > 100 µM
TGI (PC-3 prostate): > 100 µM
TGI (HCC-2998 colon): > 100 µM
TGI (MOLT-4 leukemia): > 100 µM
TGI (SW-620 colon): > 100 µM
TGI (SN12C renal): > 100 µM
TGI (HOP-62 NSCLC): > 100 µM
TGI (A498 renal): > 100 µM
TGI (IGROV1 ovarian): > 100 µM
TGI (UACC-62 melanoma): > 100 µM
TGI (U251 CNS): > 100 µM
TGI (NCI/ADR-RES ovarian): > 100 µM
TGI (CCRF-CEM leukemia): > 100 µM
TGI (CAKI-1 renal): > 100 µM
TGI (SNB-75 CNS): > 100 µM
TGI (BT-549 breast): > 100 µM
TGI (MCF7 breast): > 100 µM
TGI (SNB-19 CNS): > 100 µM
TGI (SF-539 CNS): > 100 µM
TGI (K-562 leukemia): > 100 µM
TGI (A549 NSCLC): > 100 µM
TGI (NCI-H226 lung): > 100 µM
TGI (HS 578T breast): > 100 µM
TGI (M14 melanoma): > 100 µM
TGI (SR leukemia): > 100 µM
TGI (SK-MEL-28 melanoma): > 100 µM
TGI (HL-60(TB) leukemia): > 100 µM
TGI (SK-MEL-2 melanoma): > 100 µM
TGI (OVCAR-3 ovarian): > 100 µM
TGI (HT29 colon): > 100 µM
TGI (EKVX NSCLC): > 100 µM
TGI (MALME-3M melanoma): > 100 µM
TGI (ACHN renal): > 100 µM
TGI (HCT-15 colon): > 100 µM
TGI (UO-31 renal): > 100 µM

Cc1nn(C)c2cc(N(C)c3ccnc(Nc4cccc(S(N)(=O)=O)c4)n3)ccc12
GI50 (NCI-H460 lung): 7.87 µM
TGI (NCI-H460 lung): > 25 µM
GI50 (DU-145 prostate): 7.18 µM
TGI (DU-145 prostate): > 25 µM
GI50 (786-0 renal): 9.36 µM
TGI (786-0 renal): > 25 µM
GI50 (SF-295 CNS): 10.1 µM
TGI (SF-295 CNS): > 25 µM
GI50 (UACC-257 melanoma): 6.54 µM
TGI (UACC-257 melanoma): > 25 µM
GI50 (HOP-92 NSCLC): 4.39 µM
TGI (HOP-92 NSCLC): > 25 µM
GI50 (OVCAR-8 ovarian): 7.15 µM
TGI (OVCAR-8 ovarian): > 25 µM
GI50 (OVCAR-5 ovarian): 5.83 µM
TGI (OVCAR-5 ovarian): > 25 µM
GI50 (MDA-MB-231 breast): 8.03 µM
TGI (MDA-MB-231 breast): > 25 µM
GI50 (KM12 colon): 7.38 µM
TGI (KM12 colon): > 25 µM
GI50 (HCT-116 colon): 7.43 µM
TGI (HCT-116 colon): > 25 µM
GI50 (OVCAR-4 ovarian): 6.15 µM
TGI (OVCAR-4 ovarian): > 25 µM
GI50 (NCI-H23 lung): 6.6 µM
TGI (NCI-H23 lung): > 25 µM
GI50 (T-47D breast): > 7.8 µM
TGI (T-47D breast): > 21.1 µM
GI50 (COLO 205 colon): > 17.3 µM
TGI (COLO 205 colon): > 25 µM
GI50 (SK-MEL-5 melanoma): 3.62 µM
TGI (SK-MEL-5 melanoma): 8.4 µM
GI50 (TK-10 renal): 5.93 µM
TGI (TK-10 renal): 24.4 µM
GI50 (SK-OV-3 ovarian): > 11.8 µM
TGI (SK-OV-3 ovarian): > 25 µM
GI50 (LOX IMVI melanoma): 7.14 µM
TGI (LOX IMVI melanoma): > 25 µM
GI50 (RXF 393 renal): 5.98 µM
TGI (RXF 393 renal): > 19.2 µM
GI50 (PC-3 prostate): 7.17 µM
TGI (PC-3 prostate): > 25 µM
GI50 (HCC-2998 colon): 15.7 µM
TGI (HCC-2998 colon): > 25 µM
GI50 (RPMI-8226 leukemia): 6.82 µM
TGI (RPMI-8226 leukemia): > 25 µM
GI50 (SF-268 CNS): 6.39 µM
TGI (SF-268 CNS): > 25 µM
GI50 (MOLT-4 leukemia): 6.62 µM
TGI (MOLT-4 leukemia): > 23.8 µM
GI50 (SW-620 colon): 11.3 µM
TGI (SW-620 colon): > 25 µM
GI50 (SN12C renal): 6.59 µM
TGI (SN12C renal): > 25 µM
GI50 (HOP-62 NSCLC): > 15 µM
TGI (HOP-62 NSCLC): > 25 µM
GI50 (A498 renal): 5.27 µM
TGI (A498 renal): 17.5 µM
GI50 (IGROV1 ovarian): 5.98 µM
TGI (IGROV1 ovarian): > 18.9 µM
GI50 (UACC-62 melanoma): 5.94 µM
TGI (UACC-62 melanoma): > 22.7 µM
GI50 (U251 CNS): 10.8 µM
TGI (U251 CNS): > 25 µM
GI50 (NCI/ADR-RES ovarian): 7.85 µM
TGI (NCI/ADR-RES ovarian): > 25 µM
GI50 (CCRF-CEM leukemia): 7.3 µM
TGI (CCRF-CEM leukemia): > 25 µM
GI50 (CAKI-1 renal): 7.17 µM
TGI (CAKI-1 renal): > 22.6 µM
GI50 (SNB-75 CNS): 5.89 µM
TGI (SNB-75 CNS): > 23.7 µM
GI50 (BT-549 breast): 8.69 µM
TGI (BT-549 breast): > 23.5 µM
GI50 (MCF7 breast): 7.11 µM
TGI (MCF7 breast): > 25 µM
GI50 (SNB-19 CNS): 13.2 µM
TGI (SNB-19 CNS): > 25 µM
GI50 (SF-539 CNS): 8.01 µM
TGI (SF-539 CNS): > 25 µM
GI50 (K-562 leukemia): 2.13 µM
TGI (K-562 leukemia): > 25 µM
GI50 (A549 NSCLC): 8.55 µM
TGI (A549 NSCLC): > 25 µM
GI50 (NCI-H226 lung): 5.16 µM
TGI (NCI-H226 lung): > 21.3 µM
GI50 (HS 578T breast): 7.26 µM
TGI (HS 578T breast): > 25 µM
GI50 (M14 melanoma): 8.11 µM
TGI (M14 melanoma): > 25 µM
GI50 (MDA-MB-435): 6.12 µM
TGI (MDA-MB-435): > 25 µM
GI50 (NCI-H522 lung): 3.46 µM
TGI (NCI-H522 lung): 19.2 µM
GI50 (SK-MEL-28 melanoma): 9 µM
TGI (SK-MEL-28 melanoma): > 25 µM
GI50 (HL-60(TB) leukemia): 5.76 µM
TGI (HL-60(TB) leukemia): 21.5 µM
GI50 (SK-MEL-2 melanoma): 9.32 µM
TGI (SK-MEL-2 melanoma): > 25 µM
GI50 (OVCAR-3 ovarian): 8.19 µM
TGI (OVCAR-3 ovarian): > 25 µM
GI50 (HT29 colon): 6.1 µM
TGI (HT29 colon): > 25 µM
GI50 (EKVX NSCLC): 6.92 µM
TGI (EKVX NSCLC): > 25 µM
GI50 (MALME-3M melanoma): 4.72 µM
TGI (MALME-3M melanoma): 21.8 µM
GI50 (ACHN renal): 6.71 µM
TGI (ACHN renal): > 25 µM
GI50 (HCT-15 colon): 9.02 µM
TGI (HCT-15 colon): > 25 µM
GI50 (UO-31 renal): 3.44 µM
TGI (UO-31 renal): > 18.1 µM
